From patent US8475772B2, “Peptide-based oral care surface reagents for personal care” (E I du Pont de Nemours and Company, priority 2003, dated 2013)
Where “and” joins values, the source holds several entries; their conditions need not be identical. Equal entries are not always repeated. Where no end group is shown, it is not given here.

Legend:
[1] = MB50 ELISA of biotinylated peptides on pig skin; type: binding; conditions: for EC50: Substrate Pig Skin, biotinylated peptide with C-terminal amidated cysteine; for binding affinity for skin (in words): pig skin
Experimental: (§1) Hair-binding and skin-binding peptides were synthesized by Syn Pep Inc. (Dublin, Calif.). The peptides were biotinylated by adding a biotinylated lysine residue at the C-terminus of the amino acid binding sequences for detection purposes and an amidated cysteine was added to the C-terminus of the sequence.
(§2) For hair samples, the procedure used was as follows. The setup of the surface specific 96-well system used was the same as that described in Example 5. Briefly, the 96-wells with hair or pig skin surfaces were blocked with blocking buffer (SUPERBLOCK™ from Pierce Chemical Co., Rockford, Ill.) at room temperature for 1 h, followed by six washes with TBST-0.5%, 2 min each, at room temperature. Various concentrations of biotinylated, binding peptide were added to each well, incubated for 15 min at 37° C., and washed six times with TBST-0.5%, 2 min each, at room temperature. Then, streptavidin-horseradish peroxidase (HRP) conjugate (Pierce Chemical Co.) was added to each well (1.0 μg per well), and incubated for 1 h at room temperature. After the incubation, the wells were washed six times with TBST-0.5%, 2 min each at room temperature. Finally, the color development and the measurement were performed as described in Example 5.
For the measurement of MB50 of the peptide-skin complexes, the following procedure was used. First, the pigskin was treated to block the endogenous biotin in the skin. This was done by adding streptavidin to the blocking buffer. After blocking the pigskin sample, the skin was treated with D-biotin to block the excess streptavidin binding sites. The remaining steps were identical to those used for the hair samples.
(§3) The results were plotted as A450 versus the concentration of peptide using GraphPad Prism 4.0 (GraphPad Software, Inc., San Diego, Calif.).

[2] = Titer-based phage binding assay on normal hair; design: species or system human; conditions: output pfu retained by 10 mg normal hair; input 10^14 pfu of phage clone; acid-eluted phage
Experimental: Phage clones displaying specific peptides were used for comparing the binding characteristics of different peptide sequences. A titer-based assay was used to quantify the phage binding. This assay measures the output pfu retained by 10 mg of hair surfaces, having a signal to noise ratio of 10^3 to 10^4. The input for all the phage clones was 10^14 pfu. It should be emphasized that this assay measures the peptide-expressing phage particle, rather than peptide binding.
Normal hairs were cut into 0.5 cm lengths and 10 mg of the cut hair was placed in each well of a 96-well filter plate (Qiagen). Then, the wells were filled with blocking buffer containing 1 mg/mL BSA in TBST-0.5% and incubated for 1 h at 4° C. The hairs were washed 5 times with TBST-0.5%. The wells were then filled with 1 mL of TBST-0.5% containing 1 mg/mL BSA and then purified phage clones (10^14 pfu) were added to each well. The hair samples were incubated for 15 min at room temperature and then washed 10 times with TBST-0.5%. The hairs were transferred to a clean well and 1.0 mL of a non-specific elution buffer, consisting of 1 mg/mL BSA in 0.2 M Glycine-HCl at pH 2.2, was added to each well. The samples were incubated for 10 min and then 160 μL of neutralization buffer (1 M Tris-HCl, pH 9.2) was added to each well. The eluted phages from each well were transferred to a new tube for titering and sequencing analysis.
To titer the bound phages, the eluted phage was diluted with SM buffer to prepare 10-fold serial dilutions of 10^1 to 10^8. A 10 μL aliquot of each dilution was incubated with 200 μL of mid-log phase E. coli ER2738 (New England BioLabs), and grown in LB medium for 20 min and then mixed with 3 mL of agarose top (LB medium with 5 mM MgCl2, and 0.7% agarose) at 45° C. This mixture was spread onto a LB medium/IPTG/Xgal plate (LB medium with 15 g/L agar, 0.05 g/L IPTG, and 0.04 g/L Xgal) and incubated overnight at 37° C.

[3] = Phage ELISA on hair surfaces; type: binding, human; conditions: for Hair A450: phage clone on hair, 37° C. 15 min, anti-M13 HRP, mean of at least three replicates
Experimental: (§4) Enzyme-linked immunosorbent assay (ELISA) was used to evaluate the hair-binding specificity of selected phage-peptide clones. Phage-peptide clones identified in Examples 1 and 2 along with a randomly chosen control G-F9, KHGPDLLRSAPR (given as SEQ ID NO:63) were amplified. More than 10^14 pfu phages were added to pre-blocked hair surfaces.
(§5) A unique hair or pig skin-bottom 96-well apparatus was created by applying one layer of Parafilm® under the top 96-well block of a Minifold I Dot-Blot System (Schleicher & Schuell, Inc., Keene, N.H.), adding hair or a layer of hairless pig skin on top of the Parafilm® cover, and then tightening the apparatus. For each clone to be tested, the hair-covered well was incubated for 1 h at room temperature with 200 μL of blocking buffer, consisting of 2% non-fat dry milk (Schleicher & Schuell, Inc.) in TBS. A second Minifold system with pig skin at the bottom of the wells was treated with blocking buffer simultaneously to serve as a control. The blocking buffer was removed by inverting the systems and blotting them dry with paper towels. The systems were rinsed 6 times with wash buffer consisting of TBST-0.05%. The wells were filled with 200 μL of TBST-0.5% containing 1 mg/mL BSA and then 10 μL (over 10^12 copies) of purified phage stock was added to each well. The samples were incubated at 37° C. for 15 min with slow shaking. The non-binding phage was removed by washing the wells 10 to 20 times with TBST-0.5%. Then, 100 μL of horseradish peroxidase/anti-M13 antibody conjugate (Amersham USA, Piscataway, N.J.), diluted 1:500 in the blocking buffer, was added to each well and incubated for 1 h at room temperature. The conjugate solution was removed and the wells were washed 6 times with TBST-0.05%. TMB substrate (200 μL), obtained from Pierce Biotechnology (Rockford, Ill.) was added to each well and the color was allowed to develop for between 5 to 30 min, typically for 10 min, at room temperature. Then, stop solution (200 μL of 2 M H2SO4) was added to each well and the solution was transferred to a 96-well plate and the A450 was measured using a microplate spectrophotometer (Molecular Devices, Sunnyvale, Calif.). The resulting absorbance values, reported as the mean of at least three replicates, and the standard error of the mean (SEM) are given in Table 10.

[4] = Phage ELISA on pig skin surfaces (specificity control); type: binding; conditions: for Pig Skin A450: phage clone on pig skin, 37° C. 15 min, anti-M13 HRP, mean of at least three replicates
Experimental: as §4, §5

[5] = MB50 ELISA of biotinylated peptides on hair; type: binding, human; conditions: for EC50: biotinylated peptide with C-terminal amidated cysteine; for binding affinity for hair (in words): respective substrate hair
Experimental: as §1, §2, §3

[6] = Interfiber friction test, low load, against another single hair fiber; design: species or system human; conditions: mean of fibers; normal force 8.5 mg
Experimental: (§6) IL) in distilled water. The aqueous solution was mixed at 7000 rpm for 4 min using a Silverson […] High Shear Laboratory Mixer (Silverson Machines, Inc., East Longmeadow, Mass.) with a general purpose disintegrating head and a 0.95 cm mini-micro tubular frame. A 0.5% solution of Dow Corning® 929 Cationic Emulsion (Dow Corning Corp., Midland, Mich.), a commercial conditioning agent, in distilled water was prepared using identical mixing conditions. European dark brown hair swatches (International Hair Importers and Products) were cleaned before testing by immersing in isopropanol for 30 min, then washing 10 times with distilled water. Single hair fibers from these swatches were sent to Textile Research Institute (TRI), Princeton, N.J., for friction testing. […] Frictional force measurements of treated hair fibers were measured by the Interfiber friction test using a single-fiber friction apparatus, as described by […] et al. (J. Appl. Polymer Sci., 85:394-414 (2002)). Hair fibers were evaluated at high normal forces (high load) (0.74 g) against a chromed steel wire, crosshead speed of 1 mm/min, using an Instron Tensile Testing machine. Low normal forces (low load) (8.5 mg) were measured against another single hair fiber using the TRI/ScanTM Surface Force Analyzer (Textile Research Institute). […]

[7] = Fiber friction test, high load, against chromed steel wire; design: species or system human; conditions: normal force 0.74 g
Experimental: as §6

[8] = Peptide competition ELISA on normal hair; type: binding, human
Experimental: The purpose of this Example was to test the peptide binding site specificity and affinity of the hair-binding peptide D21 using a competition ELISA. The ELISA assay only detects phage particles that remain bound to the hair surface.
The synthetic hair-binding peptide D21, given as SEQ ID NO:46, was synthesized by SynPep (Dublin, Calif.). As a control, an unrelated synthetic skin-binding peptide, given as SEQ ID NO:61, was added to the system. The experimental conditions were similar to those used in the ELISA method described in Example 5. Briefly, 100 μL of Binding Buffer (1×TBS with 0.1% Tween®20 and 1 mg/mL BSA) and 10^11 pfu of the pure D21 phage particles were added to each well of the 96-well filter plate, which contained a sample of normal hair. The synthetic peptide (100 μg) was added to each well (corresponding to concentration of 0.8 mM). The reactions were carried out at room temperature for 1 h with gentle shaking, followed by five washes with TBST-0.5%. The remaining steps were identical to the those used in the ELISA method described in Example 5. Each individual ELISA test was performed in triplicate; the values in Table 11 are the means of the triplicate determinations.

Substance | Phage Titer [2] | Hair A450 [3] | Pig Skin A450 [4] | other results
TPFHSPENAPGS [SEQ ID NO: 61] | – | – | – | EC50 [1]: 700 nM; binding affinity for skin (in words) [1]: high
HLTVPWRGGGSAVPFYSHSQITLPNH (Hair-binding peptide) [Clone F] | 1.11 × 10^6 | – | – | –
SLNWVTIPGPKI (Hair-binding peptide) [Clone C10] | – | 0.542 | 0.032 | –
TPPELLHGDPRS [Clone I-B5] | – | – | – | EC50 ([5]; Substrate Normal and Bleached Hair): 300 nM; binding affinity for hair (in words) [5]: high; EC50 [1]: > 100000 nM; binding affinity for skin (in words) [1]: relatively low
TDMQAPTKSYSN (Hair-binding peptide) [Clone C5] | – | 0.548 | 0.047 | –
TAATTSP [Clone B1] | – | 0.42 | 0.127 | –
LGIPQNL [Clone D39] | – | 0.685 | 0.086 | –
Conditioner: SEQ ID NO:46 covalently linked to behenyl alcohol; tested at 0.25% with 1.5% lecithin in water (RTNAADHPAAVT; also: covalently linked to behenyl alcohol, site not given here) | – | – | – | Friction Force Ff, Low Load, Mean [6]: 0.304 mg; Friction Force Ff, High Load, Mean ([7]; mean of fibers): 0.055 g; Friction Force Ff, High Load ([7]; single fibers 1-4): 0.041 g and 0.057 g and 0.070 g and 0.051 g
LPRIANTWSPS [Clone F35] | – | – | – | EC50 ([5]; Substrate Bleached Hair): 3000 nM; binding affinity for hair (in words) [5]: high
MPKYYLQ [Clone J] | 1.24 × 10^6 | – | – | –
TPALDGLRQPLR (Hair-binding peptide) [Clone C18] | – | 0.34 | 0.132 | –
GPHDTSSGGVRPNLHHTSKKEKRENRKVPFYSHSVTSRGNV (Hair-binding peptide) [Clone D5] | 1.67 × 10^8 | 0.652 | 0.104 | –
AKTHKHPAPSYS (Hair-binding peptide) [Clone C13] | – | 0.375 | 0.024 | –
HPMSAPR (Hair-binding peptide) [Clone I] | 1.17 × 10^6 | – | – | –
KHGPDLLRSAPR (Control peptide) [Clone G-F9, reference compound] | – | 0.074 | −0.137 | –
KHPTYRQ [Clone H] | 1.30 × 10^6 | – | – | –
HPVWPAI [Clone D] | 8.20 × 10^4 | – | – | –
HIKPPTR [Clone B] | 1.21 × 10^5 | – | – | –
EQISGSLVAAPW (Hair-binding peptide) [Clone A5] | – | 0.431 | 0.256 | –
DLHTVYH [Clone A] | 7.50 × 10^4 | – | – | –
MPLYYLQ [Clone E] | 1.70 × 10^5 | – | – | –
NSPGYQADSVAIG (Hair-binding peptide) [Clone D30] | – | 0.414 | 0.287 | –
RTNAADHPAAVT [Clone D21] | – | 1.051 | 0.04 | selectivity for hair compared to pig skin ([3]; phage ELISA hair vs pig skin): highest selectivity for hair; binding affinity for hair (in words) ([3]; phage ELISA, versus control G-F9): very strong affinity for hair; affinity for pig skin (in words) ([4]; phage ELISA): very low affinity for pig skin; A450 ([8]; 10^11 pfu D21 phage on normal hair, synthetic peptide 100 μg per well (0.8 mM), mean of triplicate): 1.878; competition with phage clone D21 for hair binding sites (in words) ([8]; synthetic peptide 0.8 mM): does compete with the phage clone D21 for the same binding sites on the hair surface; EC50 ([5]; Substrate Normal Hair): 2000 nM; binding affinity for hair (in words) [5]: high; EC50 [1]: 40000 nM; binding affinity for skin (in words) [1]: relatively low
MHAHSIA [Clone A36] | – | 0.585 | 0.173 | –
